Source: ChEMBL document CHEMBL1201862, “PubChem BioAssay data set” (2004)
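Results reflect a 48-hour exposure of cells in 96-well plates to compound at five concentrations. At the GI50, growth is halved.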 Active and inactive are the calls of the source. Rule as the data show it: active = GI50 up to about 1.1 µM and inactive = higher. Square brackets hold non-standard residues; d marks the D form. Peptide text beside a SMILES is read from it. * marks the point of attachment. Phe(4-NO2) = N[CH](Cc1ccc([N+](=O)[O-])cc1)C(=O)O; Boc = CC(C)(C)OC(=O)*

Experiments:
Experiment in all cases: NCI tumour cell line growth inhibition, 48 h
A498 = tested on: A498
A549 = tested on: A549
ACHN = tested on: ACHN
BT-549 = tested on: BT-549
DU-145 = tested on: DU-145
EKVX = tested on: EKVX
HL-60 = tested on: HL-60
HOP-92 = tested on: HOP-92
Hs-578T = tested on: Hs-578T
KM12 = tested on: KM12
M14 = tested on: M14
MDA-N = tested on: MDA-N
NCI-H460 = tested on: NCI-H460
OVCAR-4 = tested on: OVCAR-4
PC-3 = tested on: PC-3
SF-268 = tested on: SF-268
SF-295 = tested on: SF-295
SK-MEL-2 = tested on: SK-MEL-2
CCRF-CEM = tested on: CCRF-CEM
MOLT-4 = tested on: MOLT-4

Measured: GI50

Cc1cc(Cl)ccc1OCC(=O)Oc1c(Cl)c(Cl)c(Cl)c(Cl)c1Cl
inactive: A498 25.6 µM | A549 25.6 µM | ACHN 28.2 µM | BT-549 35.9 µM | DU-145 22.4 µM | EKVX 18.6 µM | HL-60 > 100 µM | HOP-92 17.3 µM | Hs-578T 22.6 µM | KM12 23.2 µM | M14 26.6 µM | MDA-N 26.2 µM | NCI-H460 22.6 µM | OVCAR-4 27.3 µM | PC-3 28.2 µM | SF-268 30.5 µM | SF-295 24.1 µM | SK-MEL-2 24.2 µM

Cc1cc(C)n(-c2nc(C)c(CCO)c(=O)[nH]2)n1
inactive: A549 > 100 µM | ACHN > 100 µM | BT-549 > 100 µM | CCRF-CEM > 100 µM | DU-145 > 100 µM | EKVX > 100 µM | HL-60 > 100 µM | HOP-92 > 100 µM | Hs-578T > 100 µM | KM12 > 100 µM | M14 > 100 µM | MDA-N > 100 µM | MOLT-4 > 100 µM | NCI-H460 > 100 µM | OVCAR-4 > 100 µM | PC-3 > 100 µM | SF-268 > 100 µM | SF-295 > 100 µM

CC1OC(OC2C(O[C@H]3CC[C@@]4(C)C(=CC[C@H]5[C@@H]6C[C@@H]7O[C@]8(CC[C@@H](C)CO8)[C@@H](C)[C@@H]7[C@@]6(C)CC[C@@H]54)C3)OC(CO)C(O)C2OC2OC(CO)C(O)C(O)C2O)C(O)C(O)C1O (some centres not stated)
inactive: A498 1.44 µM | A549 1.81 µM | ACHN 1.8 µM | BT-549 2.07 µM | CCRF-CEM 14.3 µM | DU-145 2.08 µM | EKVX 12.4 µM | HL-60 3.35 µM | HOP-92 1.79 µM | Hs-578T 1.73 µM | KM12 2.21 µM | M14 2.35 µM | MDA-N 1.72 µM | NCI-H460 2.22 µM | OVCAR-4 1.58 µM | PC-3 1.87 µM | SF-268 1.9 µM | SF-295 2.14 µM | SK-MEL-2 1.72 µM

COC1/C=C\OC2(C)Oc3c(C)c(O)c4c(O)c(c(CN(C)C)c(O)c4c3C2=O)NC(=O)/C(C)=C\C=C/C(C)C(O)C(C)C(O)C(C)C(OC(C)=O)C1C (configuration not stated)
inactive: A498 > 100 µM | A549 27.4 µM | ACHN 61.9 µM | BT-549 31.2 µM | DU-145 32.3 µM | EKVX 12.5 µM | HL-60 18.5 µM | HOP-92 45 µM | Hs-578T 30.7 µM | KM12 33.7 µM | M14 19.4 µM | MDA-N 30.6 µM | MOLT-4 15.5 µM | NCI-H460 32.1 µM | OVCAR-4 36.6 µM | PC-3 23 µM | SF-268 33.3 µM | SF-295 > 100 µM | SK-MEL-2 18.7 µM

NCCCCCNOCCCN
inactive: A549 > 100 µM | ACHN > 100 µM | BT-549 > 100 µM | CCRF-CEM > 100 µM | DU-145 > 100 µM | EKVX > 100 µM | HL-60 > 100 µM | HOP-92 > 100 µM | Hs-578T > 100 µM | KM12 > 100 µM | M14 > 100 µM | MDA-N > 100 µM | MOLT-4 > 100 µM | NCI-H460 > 100 µM | OVCAR-4 > 100 µM | PC-3 > 100 µM | SF-268 > 100 µM | SF-295 > 100 µM | SK-MEL-2 > 100 µM

OCCCCn1cc(Cn2ncc3c(SCc4ccccc4)ncnc32)nn1
inactive: A498 43.5 µM | A549 42.7 µM | ACHN 67.6 µM | BT-549 34.7 µM | CCRF-CEM 45.5 µM | DU-145 58.5 µM | EKVX 30.6 µM | HOP-92 > 100 µM | Hs-578T 26 µM | KM12 26 µM | M14 29.9 µM | MDA-N 15.7 µM | MOLT-4 21.3 µM | NCI-H460 41.4 µM | OVCAR-4 28.9 µM | PC-3 61.2 µM | SF-268 63.1 µM | SF-295 28.7 µM | SK-MEL-2 76.7 µM

C/C(=C/CC[C@](C)(OC1OC(CO)C(O)C(O)C1OC1OC(C)C(O)C(O)C1O)[C@H]1CC[C@]2(C)[C@@H]1CC[C@@H]1[C@@]3(C)CC[C@H](O)C(C)(C)[C@@H]3C[C@H](O)[C@]12C)CO (some centres not stated)
inactive: A498 > 100 µM | A549 > 100 µM | ACHN > 100 µM | BT-549 > 100 µM | CCRF-CEM > 100 µM | DU-145 > 100 µM | EKVX > 100 µM | HL-60 > 100 µM | HOP-92 > 100 µM | Hs-578T > 100 µM | KM12 > 100 µM | M14 > 100 µM | MDA-N > 100 µM | MOLT-4 > 100 µM | NCI-H460 > 100 µM | OVCAR-4 > 100 µM | PC-3 > 100 µM | SF-268 > 100 µM | SF-295 > 100 µM

CCOC(=O)C(Cc1ccccc1)(Cc1ccc(O)cn1)NC(=O)c1ccccc1 (configuration not stated)
inactive: A549 27.2 µM | ACHN 35.8 µM | BT-549 30.1 µM | CCRF-CEM 7.03 µM | DU-145 27.5 µM | EKVX 25.9 µM | HL-60 21.7 µM | HOP-92 18.5 µM | Hs-578T 16.3 µM | KM12 17.5 µM | M14 17.9 µM | MDA-N 6.27 µM | MOLT-4 27.9 µM | NCI-H460 27.4 µM | OVCAR-4 27.4 µM | PC-3 18.5 µM | SF-268 17.7 µM | SF-295 27.3 µM | SK-MEL-2 20.2 µM

O=C(C[N+]12CN3CN(CN(C3)C1)C2)c1ccc(-c2ccccc2)cc1
inactive: A498 19.6 µM | A549 30.1 µM | ACHN 21.4 µM | BT-549 29.9 µM | CCRF-CEM 1.71 µM | DU-145 17.6 µM | EKVX 19.8 µM | HOP-92 33.5 µM | Hs-578T 32.7 µM | KM12 32 µM | M14 21.7 µM | MDA-N 21.8 µM | MOLT-4 16.7 µM | NCI-H460 13.7 µM | OVCAR-4 51.4 µM | PC-3 16 µM | SF-268 19.4 µM | SF-295 19.8 µM | SK-MEL-2 18.3 µM

Nc1ccccc1C(=O)CCc1c[nH]c2ccccc12
inactive: A498 > 100 µM | A549 > 100 µM | ACHN 53.7 µM | BT-549 19.3 µM | DU-145 > 100 µM | EKVX 48.3 µM | HL-60 > 100 µM | HOP-92 13.3 µM | Hs-578T 24.2 µM | KM12 > 100 µM | M14 > 100 µM | MDA-N > 100 µM | MOLT-4 > 100 µM | NCI-H460 > 100 µM | OVCAR-4 20.3 µM | PC-3 > 100 µM | SF-268 43.4 µM | SF-295 19.4 µM | SK-MEL-2 > 100 µM

COc1ccc(Nc2nc3cc(C(F)(F)F)ccc3n3cccc23)cc1OC
inactive: A498 14.7 µM | A549 14.1 µM | ACHN 17.7 µM | BT-549 17.3 µM | CCRF-CEM 10.7 µM | DU-145 20.3 µM | EKVX 20.3 µM | HL-60 19.8 µM | HOP-92 15.7 µM | Hs-578T 29.2 µM | KM12 10.3 µM | M14 14.3 µM | MDA-N 12.6 µM | MOLT-4 7.85 µM | NCI-H460 10.4 µM | PC-3 10.6 µM | SF-268 26.7 µM | SF-295 10.3 µM | SK-MEL-2 15.5 µM

C=C(C)C1CCC2(CO)C(O)CC3(C)C(CCC4C5(C)CCC(O)C(C)(C)C5CCC43C)C12 (configuration not stated)
inactive: A498 10.9 µM | A549 10.6 µM | ACHN 3.57 µM | BT-549 11.6 µM | CCRF-CEM 50 µM | DU-145 35.6 µM | EKVX 13.9 µM | HL-60 25.3 µM | HOP-92 11.4 µM | Hs-578T 7.76 µM | KM12 6.97 µM | M14 18.6 µM | MDA-N 12.1 µM | MOLT-4 27.4 µM | NCI-H460 11.8 µM | PC-3 6.01 µM | SF-268 8.36 µM | SF-295 2.84 µM | SK-MEL-2 10.3 µM

CNC(=O)CCC(NC(=O)OC(C)(C)C)C(=O)NC(Cc1ccc([N+](=O)[O-])cc1)C(=O)NCC(=O)NC (configuration not stated) (Boc-Glu(NHMe)-[Phe(4-NO2)]-Gly-NHMe; configuration not given here)
inactive: A498 68.2 µM | A549 > 100 µM | ACHN > 100 µM | BT-549 > 100 µM | DU-145 > 100 µM | EKVX > 100 µM | HL-60 > 100 µM | HOP-92 > 100 µM | Hs-578T > 100 µM | KM12 > 100 µM | M14 > 100 µM | MDA-N > 100 µM | MOLT-4 > 100 µM | NCI-H460 > 100 µM | OVCAR-4 > 100 µM | PC-3 > 100 µM | SF-268 > 100 µM | SF-295 > 100 µM

NCCO/C=C/C(N)C(=O)O (configuration not stated) [AMINOETHOXYVINYLGLYCINE]
inactive: A549 > 100 µM | ACHN > 100 µM | BT-549 > 100 µM | CCRF-CEM > 100 µM | DU-145 > 100 µM | EKVX > 100 µM | HL-60 > 100 µM | HOP-92 > 100 µM | Hs-578T > 100 µM | KM12 > 100 µM | M14 > 100 µM | MDA-N > 100 µM | NCI-H460 > 100 µM | OVCAR-4 > 100 µM | PC-3 > 100 µM | SF-268 > 100 µM | SF-295 > 100 µM | SK-MEL-2 > 100 µM
